Consider seven compounds from ChEMBL document CHEMBL1201862, “PubChem BioAssay data set” (2004).

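Each compound was tested at five concentrations against cells in 96-well plates for 48 hours. GI50 marks 50% less growth.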 The source made the active and inactive calls. No stated cut-off is given here; in the data, active = GI50 up to about 1.1 µM and inactive = higher.

Assay in all cases: NCI tumour cell line growth inhibition, 48 h
Test [1] relates to ACHN.
Test [2] relates to BT-549.
The test system of test [3] is CCRF-CEM.
Test [4] deals with HCC 2998.
Test [5] relates to HOP-62.
For test [6], the system named is HOP-92.
The subject of test [7] is HT-29.
For test [8], the system named is Hs-578T.
For test [9], the system named is MDA-MB-435.
The test system of test [10] is Malme-3M.
In test [11] the test system is NCI-H23.
Test [12] relates to NCI-H522.
Test [13] concerns NCI/ADR-RES.
Test [14] relates to OVCAR-4.
Test [15] has as its system RXF 393.
Test [16] has as its system SK-MEL-2.
Test [17] deals with SR.
For test [18], the system named is U-251.
Test [19] has as its system UACC-257.

For the compound `O=[N+]([O-])c1c(F)c(F)c2c(c1F)Nc1ccccc1S2`, the GI50 is 15.7 µM (inactive) in test [1]; 11 µM (inactive) in test [2]; 2.69 µM (inactive) in test [3]; 2.76 µM (inactive) in test [4]; 12.6 µM (inactive) in test [5]; 15.2 µM (inactive) in test [6]. Besides, the GI50 in test [7] is 2.07 µM (inactive); in [8] it was 7.1 µM (inactive); in test [9], 4.81 µM (inactive); in test [10], 5.55 µM (inactive); in test [11], 2.63 µM (inactive); in [12], 4.68 µM (inactive). The GI50 in test [13] is 25.9 µM (inactive); in test [14] it was 2.58 µM (inactive); in test [15] it was 2.25 µM (inactive); in [16], 2.14 µM (inactive); in test [17], 2.62 µM (inactive); in test [18], 2.05 µM (inactive). In test [19], the GI50 was 1.49 µM (inactive).
On to `CCCCCCOc1ccc(C(=O)NO)cc1`, for which the GI50 is 5.07 µM (inactive) in test [1]; 15.8 µM (inactive) in test [2]; 0.362 µM (active) in test [3]; 9.25 µM (inactive) in [4]; 11.8 µM (inactive) in [5]; 13.9 µM (inactive) in [6]. The GI50 in test [7] is 7.57 µM (inactive); in [8], 19.6 µM (inactive); in test [9] it was 9.68 µM (inactive); in [10] it was 11.3 µM (inactive); in [11], 7.03 µM (inactive); in test [12], 3.14 µM (inactive). Besides, the GI50 in test [13] was 3.08 µM (inactive); in test [14], 5.74 µM (inactive); in [15], 11.3 µM (inactive); in [16], 12.4 µM (inactive); in test [17] it was 1.19 µM (inactive); in test [18], 10.4 µM (inactive). In addition, the GI50 in test [19] was 22.8 µM (inactive).
On to `COC(=O)c1c(O)ccc2c1c1c(n2Cc2ccccc2)C(=O)c2ccccc2C1=O`, for which the GI50 in [1] was 12.2 µM (inactive); in test [2] it was 16.6 µM (inactive); in test [3] it was 15 µM (inactive); in [4], 5.01 µM (inactive); in test [5], 23.6 µM (inactive); in [6] it was 13 µM (inactive). Besides, the GI50 in [7] is 9.23 µM (inactive); in test [8] it was 18.5 µM (inactive); in test [9], 13 µM (inactive); in test [10], 28.8 µM (inactive); in test [11] it was 15.3 µM (inactive); in [12], 11 µM (inactive). The GI50 is 12.6 µM (inactive) in test [13]; 12 µM (inactive) in test [14]; 14.1 µM (inactive) in test [15]; 14 µM (inactive) in test [16]; 15.6 µM (inactive) in test [17]; 13.9 µM (inactive) in [18]. In addition, the GI50 in test [19] was 17.6 µM (inactive).
For `CCCCCCCCCCCCCCCCCCNc1ccn(C2OC(COP(=O)(O)OCC3OC(n4cc(F)c(NCCCCCCCCCCCCCCCCCC)nc4=O)CC3O)C(O)C2O)c(=O)n1` (stereo not drawn), the GI50 in test [1] is > 100 µM (inactive); in test [2] it was > 100 µM (inactive); in test [3] it was > 100 µM (inactive); in test [4], 63.5 µM (inactive); in [5] it was > 100 µM (inactive); in [6] it was 19.3 µM (inactive). For the same compound, the GI50 was > 100 µM (inactive) in test [7]; > 100 µM (inactive) in test [8]; > 100 µM (inactive) in test [9]; 42.6 µM (inactive) in [10]; > 100 µM (inactive) in test [11]; 38.9 µM (inactive) in test [12]. The GI50 in [13] is > 100 µM (inactive); in test [14], > 100 µM (inactive); in [15] it was > 100 µM (inactive); in [16] it was > 100 µM (inactive); in [17], > 100 µM (inactive); in test [18], 67 µM (inactive). Moreover, the GI50 in test [19] is > 100 µM (inactive).
As to `C=C(CCC(=O)N(CCc1c[nH]c2ccccc12)C(=O)c1ccccc1CSCC)C(=O)OC`, the GI50 is 31.9 µM (inactive) in [1]; 71.9 µM (inactive) in test [2]; 5.4 µM (inactive) in test [3]; 43.7 µM (inactive) in test [4]; > 69.2 µM (inactive) in test [5]; 40.6 µM (inactive) in [6]. In addition, the GI50 was 19.5 µM (inactive) in test [7]; 44.5 µM (inactive) in [8]; 22 µM (inactive) in test [9]; 48.9 µM (inactive) in [10]; 31.9 µM (inactive) in test [11]; 23.6 µM (inactive) in [12]. The GI50 in [13] is 27.3 µM (inactive); in test [14], 50 µM (inactive); in test [15], > 47.5 µM (inactive); in [16], 48.6 µM (inactive); in test [17], > 100 µM (inactive); in test [18], 10.3 µM (inactive). Further, the GI50 in [19] was 35.3 µM (inactive).
Regarding `O=C(O)c1ccccc1C1CCCc2c1[nH]c1ccccc21` (stereo not drawn), the GI50 is 58.5 µM (inactive) in test [1]; 83.6 µM (inactive) in test [2]; 20 µM (inactive) in test [3]; > 100 µM (inactive) in test [4]; > 100 µM (inactive) in [5]; 24 µM (inactive) in test [6]. Also, the GI50 in test [7] is 61.4 µM (inactive); in test [8], 86.9 µM (inactive); in test [9] it was 31.3 µM (inactive); in test [10], 98.9 µM (inactive); in [11], 74.1 µM (inactive); in test [12] it was 47.9 µM (inactive). In addition, the GI50 is 66.1 µM (inactive) in [13]; 41.3 µM (inactive) in [14]; 22.3 µM (inactive) in test [15]; 91.6 µM (inactive) in test [16]; 47 µM (inactive) in [17]; 81.8 µM (inactive) in [18]. Also, the GI50 in test [19] is 69.7 µM (inactive).
Turning to `O=C(O)/C=C/c1c2ccc(=O)c(O)c-2oc2c(O)c(O)ccc12`, the GI50 in test [1] was 30.8 µM (inactive); in [2], 83.9 µM (inactive); in test [3], 9.59 µM (inactive); in test [4] it was > 100 µM (inactive); in test [5], 23.4 µM (inactive); in test [6], > 100 µM (inactive). In addition, the GI50 in [7] was 63.7 µM (inactive); in test [8], 58.6 µM (inactive); in test [9], 17.4 µM (inactive); in [10], > 100 µM (inactive); in [11], > 100 µM (inactive); in test [12] it was > 100 µM (inactive). For the same compound, the GI50 was 65.3 µM (inactive) in [13]; 30.3 µM (inactive) in [14]; > 100 µM (inactive) in test [15]; 55.1 µM (inactive) in test [16]; 31.8 µM (inactive) in [17]; 16.1 µM (inactive) in test [18]. The GI50 in test [19] is > 100 µM (inactive).
